Reference: patent US20260232767A1, “INTERLEUKIN-23 RECEPTOR ANTAGONIST PEPTIDES FOR USE IN THE TREATMENT OF PSORIASIS” (Janssen Pharmaceutica NV, priority 2023, published 2026)

System: subjects with moderate-to-severe plaque psoriasis
Assay: Safety, adverse events, Example 2 through Week 56
Type: in vivo, human
Excerpt: The LTE safety analysis was based on randomized participants in Example who entered the present long-term extension study and received at least one dose of study intervention (including a partial dose) during the study period.

[1] = 25 mg BID, Week 16 through Week 56
[2] = 25 mg BID, LTE Safety analysis set

CC(=O)NCCCC[C@@H]1NC(=O)[C@H](Cc2c[nH]c3c(C)cccc23)NC(=O)[C@H]([C@@H](C)O)NC(=O)[C@H](CC(N)=O)NC(=O)[C@@H](NC(C)=O)C(C)(C)SSC(C)(C)[C@@H](C(=O)N[C@@H](Cc2ccc(OCCN)cc2)C(=O)N[C@@H](Cc2ccc3ccccc3c2)C(=O)NC2(C(=O)N[C@@H](CCC(=O)O)C(=O)N[C@@H](CC(N)=O)C(=O)N[C@@H](Cc3cccnc3)C(=O)N(C)CC(N)=O)CCOCC2)NC1=O [IL-23 receptor antagonist peptide, Ac-[Pen]*-N-T-[W(7-Me)]-[Lys(Ac)]-[Pen]*-Phe[4-(2-aminoethoxy)]-[2-Nal]-[THP]-E-N-[3-Pal]-Sarc-NH2 (*[Pen]-[Pen]* formdisulfidebond)]
Subjects with Bronchitis bacterial: 0 | Number of subjects with treatment-emergent AE: Cholelithiasis [1]: 0 | Number of subjects with treatment-emergent AE: Ear and labyrinth disorders [1]: 0 | Number of subjects with treatment-emergent AE: Endocrine disorders [1]: 1 | Number of subjects with treatment-emergent AE: Eye disorders [1]: 1 | Number of subjects with treatment-emergent AE: Eyelid skin dryness [1]: 1 | Number of subjects with treatment-emergent AE: Goiter [1]: 1 | Number of subjects with treatment-emergent AE: Hepatobiliary disorders [1]: 0 | Number of subjects with treatment-emergent AE: Hypertransaminasemia [1]: 0 | Number of subjects with treatment-emergent AE: Immune system disorders [1]: 0 | Number of subjects with treatment-emergent AE: Insomnia [1]: 1 | Number of subjects with treatment-emergent AE: Ocular cyst [1]: 0 | Number of subjects with treatment-emergent AE: Psychiatric disorders [1]: 1 | Number of subjects with treatment-emergent AE: Retinal vein occlusion [1]: 0 | Number of subjects with treatment-emergent AE: Seasonal allergy [1]: 0 | Number of subjects with treatment-emergent AE: Vertigo [1]: 0 | Subjects with treatment-emergent AE: Endocrine disorders (%) [1]: (2.5%) | Subjects with treatment-emergent AE: Eye disorders (%) [1]: (2.5%) | Subjects with treatment-emergent AE: Eyelid skin dryness (%) [1]: (2.5%) | Subjects with treatment-emergent AE: Goiter (%) [1]: (2.5%) | Subjects with treatment-emergent AE: Insomnia (%) [1]: (2.5%) | Subjects with treatment-emergent AE: Psychiatric disorders (%) [1]: (2.5%) | Subjects with treatment-emergent AE: Ventricular dysfunction (%) [1]: (2.5%) | Subjects with 1 or more Serious Infections and infestations [2]: 0 | Subjects with adverse event: Alanine aminotransferase increased [2]: 0 | Subjects with adverse event: Arthralgia [2]: 0 | Subjects with adverse event: Aspartate aminotransferase increased [2]: 0 | Subjects with adverse event: Vomiting [2]: 0 | Subjects with serious adverse event: Cerebrovascular accident [2]: 0 | Subjects with serious adverse event: Coronary artery disease [2]: 0 | Subjects with serious adverse event: Diverticulitis [2]: 0 | Subjects with serious adverse event: Foot deformity [2]: 0 | Subjects with serious adverse event: Intervertebral disc protrusion [2]: 0 | Subjects with serious adverse event: Non-cardiac chest pain [2]: 0 | Subjects with serious adverse event: Uterine leiomyoma [2]: 0 | Subjects with AE leading to discontinuation: Alanine aminotransferase increased (25 mg BID, Week 16-56): 0 | Subjects with AE leading to discontinuation: Aspartate aminotransferase increased (25 mg BID, Week 16-56): 0 | Subjects with AE leading to discontinuation: Ear and labyrinth disorders (25 mg BID, Week 16-56): 0 | Subjects with AE leading to discontinuation: Gamma-glutamyltransferase increased (25 mg BID, Week 16-56): 0 | Subjects with AE leading to discontinuation: Investigations (25 mg BID, Week 16-56): 0 | Subjects with AE leading to discontinuation: Vertigo (25 mg BID, Week 16-56): 0 | Subjects with AE leading to discontinuation: Vomiting (25 mg BID, Week 16-56): 0 | Subjects with COVID-19 associated AE of interest: SARS-CoV-2 test positive (25 mg BID, Week 16-56): 0 | Subjects with treatment-emergent AE: Alanine aminotransferase increased (25 mg BID, Week 16-56): 0 | Subjects with treatment-emergent AE: Arthralgia (25 mg BID, Week 16-56): 0 | Subjects with treatment-emergent AE: Aspartate aminotransferase increased (25 mg BID, Week 16-56): 0 | Subjects with treatment-emergent AE: Vomiting (25 mg BID, Week 16-56): 0 | Subjects with treatment-emergent serious AE: Cerebrovascular accident (25 mg BID, Week 16-56): 0 | Subjects with treatment-emergent serious AE: Coronary artery disease (25 mg BID, Week 16-56): 0 | Subjects with treatment-emergent serious AE: Diverticulitis (25 mg BID, Week 16-56): 0 | Subjects with treatment-emergent serious AE: Foot deformity (25 mg BID, Week 16-56): 0 | Subjects with treatment-emergent serious AE: General disorders and administration site conditions (25 mg BID, Week 16-56): 0 | Subjects with treatment-emergent serious AE: Infections and infestations (25 mg BID, Week 16-56): 0 | Subjects with treatment-emergent serious AE: Intervertebral disc protrusion (25 mg BID, Week 16-56): 0 | Subjects with treatment-emergent serious AE: Musculoskeletal and connective tissue disorders (25 mg BID, Week 16-56): 0 | Subjects with treatment-emergent serious AE: Neoplasms benign, malignant and unspecified (incl cysts and polyps) (25 mg BID, Week 16-56): 0 | Subjects with treatment-emergent serious AE: Nervous system disorders (25 mg BID, Week 16-56): 0 | Subjects with treatment-emergent serious AE: Non-cardiac chest pain (25 mg BID, Week 16-56): 0 | Subjects with treatment-emergent serious AE: Uterine leiomyoma (25 mg BID, Week 16-56): 0 | Acrochordon: % of subjects (25 mg BID, through Week 56): (2.4%) | Acrochordon: number of subjects (25 mg BID, through Week 56): 1 | Actinic keratosis: number of subjects (25 mg BID, through Week 56): 0 | Alopecia: number of subjects (25 mg BID, through Week 56): 0 | Asthenia: % of subjects (25 mg BID, through Week 56): (2.4%) | Asthenia: number of subjects (25 mg BID, through Week 56): 1 | Asthma: number of subjects (25 mg BID, through Week 56): 0 | Atrioventricular block first degree: number of subjects (25 mg BID, through Week 56): 0 | Basal cell carcinoma: number of subjects (25 mg BID, through Week 56): 0 | Blood and lymphatic system disorders: number of subjects (25 mg BID, through Week 56): 0 | Bronchitis chronic: number of subjects (25 mg BID, through Week 56): 0 | Bundle branch block right: number of subjects (25 mg BID, through Week 56): 0 | Cardiac disorders: % of subjects (25 mg BID, through Week 56): (2.4%) | Cardiac disorders: number of subjects (25 mg BID, through Week 56): 1 | Chills: % of subjects (25 mg BID, through Week 56): (2.4%) | Chills: number of subjects (25 mg BID, through Week 56): 1 | Cholelithiasis: number of subjects (25 mg BID, through Week 56): 0 | Chronic obstructive pulmonary disease: number of subjects (25 mg BID, through Week 56): 0 | Coronary artery disease: number of subjects (25 mg BID, through Week 56): 0 | Cough: number of subjects (25 mg BID, through Week 56): 0 | Decreased appetite: number of subjects (25 mg BID, through Week 56): 0 | Depression: number of subjects (25 mg BID, through Week 56): 0 | Dermal cyst: number of subjects (25 mg BID, through Week 56): 0 | Dermatitis acneiform: number of subjects (25 mg BID, through Week 56): 0 | Dermatitis contact: % of subjects (25 mg BID, through Week 56): (2.4%) | Dermatitis contact: number of subjects (25 mg BID, through Week 56): 1 | Diabetes mellitus: % of subjects (25 mg BID, through Week 56): (2.4%) | Diabetes mellitus: number of subjects (25 mg BID, through Week 56): 1 | Diffuse alopecia: number of subjects (25 mg BID, through Week 56): 0 | Dysuria: number of subjects (25 mg BID, through Week 56): 0 | Ear and labyrinth disorders: number of subjects (25 mg BID, through Week 56): 0 | Endocrine disorders: % of subjects (25 mg BID, through Week 56): (2.4%) | Endocrine disorders: number of subjects (25 mg BID, through Week 56): 1 | Eye disorders: % of subjects (25 mg BID, through Week 56): (2.4%) | Eye disorders: number of subjects (25 mg BID, through Week 56): 1 | Eyelid skin dryness: % of subjects (25 mg BID, through Week 56): (2.4%) | Eyelid skin dryness: number of subjects (25 mg BID, through Week 56): 1 | Fatigue: number of subjects (25 mg BID, through Week 56): 0 | General disorders and administration site conditions: % of subjects (25 mg BID, through Week 56): (4.9%) | General disorders and administration site conditions: number of subjects (25 mg BID, through Week 56): 2 | Goiter: % of subjects (25 mg BID, through Week 56): (2.4%) | Goiter: number of subjects (25 mg BID, through Week 56): 1 | Haemochromatosis: number of subjects (25 mg BID, through Week 56): 0 | Hand dermatitis: number of subjects (25 mg BID, through Week 56): 0 | Hematuria: number of subjects (25 mg BID, through Week 56): 0 | Hepatobiliary disorders: number of subjects (25 mg BID, through Week 56): 0 | Hypercholesterolemia: number of subjects (25 mg BID, through Week 56): 0 | Hyperglycemia: number of subjects (25 mg BID, through Week 56): 0 | Hyperlipidemia: % of subjects (25 mg BID, through Week 56): (2.4%) | Hyperlipidemia: number of subjects (25 mg BID, through Week 56): 1 | Hypertension: % of subjects (25 mg BID, through Week 56): (4.9%) | Hypertension: number of subjects (25 mg BID, through Week 56): 2 | Hypertransaminasemia: number of subjects (25 mg BID, through Week 56): 0 | Hypertriglyceridemia: number of subjects (25 mg BID, through Week 56): 0 | Hypoacusis: number of subjects (25 mg BID, through Week 56): 0 | Immune system disorders: number of subjects (25 mg BID, through Week 56): 0 | Influenza like illness: % of subjects (25 mg BID, through Week 56): (2.4%) | Influenza like illness: number of subjects (25 mg BID, through Week 56): 1 | Insomnia: % of subjects (25 mg BID, through Week 56): (2.4%) | Insomnia: number of subjects (25 mg BID, through Week 56): 1 | Intertrigo: number of subjects (25 mg BID, through Week 56): 0
